In US20260022142A1, “MACROCYCLIC IMMUNOMODULATORS” (Bristol-Myers Squibb Company, priority 2022, published 2026):
pIC50: −log10 of the molar value. Bridge positions count the residues as written; N and C are the ends. Square brackets hold non-standard residues; d marks the D form. Peptide text beside a SMILES is read from it. * marks the point of attachment. ξ: configuration not given here. Phe(4-CONH2) = NC(=O)c1ccc(C[C@H](N)C(=O)O)cc1; Bip = N[C@@H](Cc1ccc(-c2ccccc2)cc1)C(=O)O; Phe(4-NH2) = Nc1ccc(C[C@H](N)C(=O)O)cc1; Phe(3-Me) = Cc1cccc(C[C@H](N)C(=O)O)c1; Val(3-OH) = CC(C)(O)[C@H](N)C(=O)O; hArg = N=C(N)NCCCC[C@H](N)C(=O)O; Cha = N[C@@H](CC1CCCCC1)C(=O)O; Cit = NC(=O)NCCC[C@H](N)C(=O)O; aThr = C[C@H](O)[C@H](N)C(=O)O; Thr(3ξ) = CC(O)[C@H](N)C(=O)O; NMeNle = CCCC[C@H](NC)C(=O)O; Dap(Me) = CNC[C@H](N)C(=O)O; 12Ado = NCCCCCCCCCCCC(=O)O; Carboxymethyl = O=C(O)C*; Orn = NCCC[C@H](N)C(=O)O; Aun = NCCCCCCCCCCC(=O)O; Dab = NCC[C@H](N)C(=O)O; Dap = NC[C@H](N)C(=O)O; Piv = CC(C)(C)C(=O)*

Biological target: T1, PD-1/PD-L1 interaction (PE-labeled human PD-L1-Ig binding to Jurkat cell line over-expressing human PD-1) (Homo sapiens, UniProt Q15116)
T1 construct: expressed in transfected cells; host or cells: Jurkat
T1 sequence (Q15116 25-288): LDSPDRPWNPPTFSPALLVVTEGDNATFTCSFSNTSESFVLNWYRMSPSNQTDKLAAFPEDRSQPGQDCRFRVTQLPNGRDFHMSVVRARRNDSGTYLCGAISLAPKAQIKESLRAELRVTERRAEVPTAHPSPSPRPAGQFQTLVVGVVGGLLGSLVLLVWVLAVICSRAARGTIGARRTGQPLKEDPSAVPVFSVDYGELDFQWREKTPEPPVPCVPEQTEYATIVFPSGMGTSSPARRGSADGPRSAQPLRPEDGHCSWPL
Assay: Jurkat-PD-1 Cell Binding High-Content Screening Assay (CBA)
Assay type: cell-based
Details: Jurkat cell line over-expressing human PD-1; PE-labeled PD-L1-Ig 20 nM final; read-out: Jurkat hPD1-PDL1 IC50
How it was run: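 Binding of fluorescent PD-L1-Ig (20 nM final) to Jurkat-PD-1 cells was measured by automated imaging after 1 h, following a 2 h compound pre-treatment at 37° C.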

SMILES	pIC50
CC(=O)NCCCC[C@@H]1NC(=O)[C@H](Cc2ccc(-c3ccccc3)cc2)NC(=O)[C@H](C(C)C)NC(=O)[C@H](Cc2cccc(C)c2)NC(=O)[C@H](CC(=O)O)NC(=O)[C@H](Cc2ccc(OCC(=O)O)cc2)NC(=O)[C@H](CN)NC(=O)CSC[C@@H](C(=O)N[C@@H](CCN)C(=O)N[C@@H](CO)C(=O)NCCCCCCCCCCCC(=O)O)NC(=O)[C@H](CCCN)NC(=O)[C@H](C(C)C)NC(=O)[C@H](CC2CCCCC2)NC(=O)[C@H](CCN)NC(=O)[C@@H](CC(C)C)NC(=O)[C@H](CCCN)NC1=O [Compound 3590] ({CH2CO}-[Dap]Y(Carboxymethyl)D[Phe(3-Me)]V[Bip]K(Ac)[Orn][dL][Dab][Cha]V[Orn]C[Dab]S[12Ado]-OH; thioether N-14)	8.19
Cc1cccc(C[C@@H]2NC(=O)[C@H](CC(=O)O)NC(=O)[C@H](Cc3ccc(OCC(=O)O)cc3)NC(=O)[C@H](CCCCNC(=N)N)NC(=O)CSC[C@@H](C(=O)N[C@@H](CCCN)C(=O)N[C@@H](CO)C(=O)NCCCCCCCCCCCC(=O)O)NC(=O)[C@H](CO)NC(=O)[C@H](C(C)O)NC(=O)[C@H](CC3CCCCC3)NC(=O)[C@H](CCN)NC(=O)[C@@H](CC(C)C)NC(=O)[C@H](CCCN)NC(=O)[C@H](CCCNC(N)=O)NC(=O)[C@H](Cc3ccc(-c4ccccc4)cc3)NC(=O)[C@H](C(C)C)NC2=O)c1 (stereo partly drawn) [Compound 3591] ({CH2CO}-[hArg]Y(Carboxymethyl)D[Phe(3-Me)]V[Bip][Cit][Orn][dL][Dab][Cha][Thr(3ξ)]SC[Orn]S[12Ado]-OH; thioether N-14)	7.62
CNC[C@@H]1NC(=O)CSC[C@@H](C(=O)N[C@@H](CCN)C(=O)NCCCCCCCCCCCC(=O)O)NC(=O)[C@H](CCCN)NC(=O)[C@H](C(C)C)NC(=O)[C@H](CC2CCCCC2)NC(=O)[C@H](CCN)NC(=O)[C@@H](CC(C)C)NC(=O)[C@H](CCCN)NC(=O)[C@H](Cc2ccc(O)cc2)NC(=O)[C@H](Cc2ccc(-c3ccccc3)cc2)NC(=O)[C@H](C(C)C)NC(=O)[C@H](Cc2cccc(C)c2)NC(=O)[C@H](CC(=O)O)NC(=O)[C@H](Cc2ccc(OCC(=O)O)cc2)NC1=O [Compound 3592] ({CH2CO}-[Dap(Me)]Y(Carboxymethyl)D[Phe(3-Me)]V[Bip]Y[Orn][dL][Dab][Cha]V[Orn]C[Dab][12Ado]-OH; thioether N-14)	8.07
Cc1cccc(C[C@@H]2NC(=O)[C@H](CC(=O)O)NC(=O)[C@H](Cc3ccc(OCC(=O)O)cc3)NC(=O)[C@H](CN)NC(=O)CSC[C@@H](C(=O)N[C@@H](CCN)C(=O)NCCCCCCCCCCC(=O)O)NC(=O)[C@H](C(C)O)NC(=O)[C@H](C(C)C)NC(=O)[C@H](CC3CCCCC3)NC(=O)[C@H](CCN)NC(=O)[C@@H](CC(C)C)NC(=O)[C@H](CCCN)NC(=O)[C@H](CCCNC(N)=O)NC(=O)[C@H](Cc3ccc(-c4ccccc4)cc3)NC(=O)[C@H](CCCNC(N)=O)NC2=O)c1 (stereo partly drawn) [Compound 3593] ({CH2CO}-[Dap]Y(Carboxymethyl)D[Phe(3-Me)][Cit][Bip][Cit][Orn][dL][Dab][Cha]V[Thr(3ξ)]C[Dab][Aun]-OH; thioether N-14)	6.44
CNC[C@@H]1NC(=O)CSC[C@@H](C(=O)N[C@@H](CCN)C(=O)NCCCCCCCCCCC(=O)O)NC(=O)[C@H](C(C)O)NC(=O)[C@H](C(C)C)NC(=O)[C@H](CC2CCCCC2)NC(=O)[C@H](CCN)NC(=O)[C@@H](CC(C)C)NC(=O)[C@H](CCCN)NC(=O)[C@H](CCCCNC(C)=O)NC(=O)[C@H](Cc2ccc(-c3ccccc3)cc2)NC(=O)[C@H](CCCCNC(C)=O)NC(=O)[C@H](Cc2cccc(C)c2)NC(=O)[C@H](CC(=O)O)NC(=O)[C@H](Cc2ccc(OCC(=O)O)cc2)NC1=O (stereo partly drawn) [Compound 3594] ({CH2CO}-[Dap(Me)]Y(Carboxymethyl)D[Phe(3-Me)]K(Ac)[Bip]K(Ac)[Orn][dL][Dab][Cha]V[Thr(3ξ)]C[Dab][Aun]-OH; thioether N-14)	7.79
Cc1cccc(C[C@@H]2NC(=O)[C@H](CC(=O)O)NC(=O)[C@H](Cc3ccc(OCC(=O)O)cc3)NC(=O)[C@H](CN)NC(=O)CSC[C@@H](C(=O)N[C@@H](CCN)C(=O)NCCCCCCCCCCC(=O)O)NC(=O)[C@H]([C@H](C)O)NC(=O)[C@H](C(C)O)NC(=O)[C@H](CC3CCCCC3)NC(=O)[C@H](CCN)NC(=O)[C@@H](CC(C)C)NC(=O)[C@H](CCCN)NC(=O)[C@H](Cc3ccc(O)cc3)NC(=O)[C@H](Cc3ccc(-c4ccccc4)cc3)NC(=O)[C@H](Cc3ccc(OCC(=O)O)cc3)NC2=O)c1 (stereo partly drawn) [Compound 3595] ({CH2CO}-[Dap]Y(Carboxymethyl)D[Phe(3-Me)]Y(Carboxymethyl)[Bip]Y[Orn][dL][Dab][Cha][Thr(3ξ)][aThr]C[Dab][Aun]-OH; thioether N-14)	6.82
CNC[C@@H]1NC(=O)CSC[C@@H](C(=O)N[C@@H](CCN)C(=O)NCCCCCCCCCCC(=O)O)NC(=O)[C@H](CO)NC(=O)[C@H](C(C)O)NC(=O)[C@H](CC2CCCCC2)NC(=O)[C@H](CCN)NC(=O)[C@@H](CC(C)C)NC(=O)[C@H](CCCN)NC(=O)[C@H](Cc2ccc(O)cc2)NC(=O)[C@H](Cc2ccc(-c3ccccc3)cc2)NC(=O)[C@H](CCCCNC(=O)C(C)(C)C)NC(=O)[C@H](Cc2cccc(C)c2)NC(=O)[C@H](CC(=O)O)NC(=O)[C@H](Cc2ccc(OCC(=O)O)cc2)NC1=O (stereo partly drawn) [Compound 3596] ({CH2CO}-[Dap(Me)]Y(Carboxymethyl)D[Phe(3-Me)]K(Piv)[Bip]Y[Orn][dL][Dab][Cha][Thr(3ξ)]SC[Dab][Aun]-OH; thioether N-14)	6.79
CCCC[C@H]1C(=O)N[C@@H](Cc2ccc(OCC(=O)O)cc2)C(=O)N[C@@H](CC(=O)O)C(=O)N[C@@H](Cc2cccc(C)c2)C(=O)N[C@@H](Cc2ccc(OCC(=O)O)cc2)C(=O)N[C@@H](Cc2ccc(-c3ccccc3)cc2)C(=O)N[C@@H](Cc2ccc(OCC(=O)O)cc2)C(=O)N[C@@H](CCCN)C(=O)N[C@H](CC(C)C)C(=O)N[C@@H](CCN)C(=O)N[C@@H](CC2CCCCC2)C(=O)N[C@@H](C(C)C)C(=O)N[C@@H](CO)C(=O)N[C@H](C(=O)N[C@@H](CCN)C(=O)NCCCCCCCCCCC(=O)O)CSCC(=O)N1C [Compound 3598] ({CH2CO}-[NMeNle]Y(Carboxymethyl)D[Phe(3-Me)]Y(Carboxymethyl)[Bip]Y(Carboxymethyl)[Orn][dL][Dab][Cha]VSC[Dab][Aun]-OH; thioether N-14)	7.86
Cc1cccc(C[C@@H]2NC(=O)[C@H](CC(=O)O)NC(=O)[C@H](Cc3ccc(OCC(=O)O)cc3)NC(=O)[C@H](CCN)NC(=O)CSC[C@@H](C(=O)N[C@@H](CCCCN)C(=O)NCCCCCCCCCCC(=O)O)NC(=O)[C@H](CCCCN)NC(=O)[C@H](C(C)O)NC(=O)[C@H](CC3CCCCC3)NC(=O)[C@H](CCN)NC(=O)[C@@H](CC(C)C)NC(=O)[C@H](CCCN)NC(=O)[C@H](Cc3ccc(O)cc3)NC(=O)[C@H](Cc3ccc(-c4ccccc4)cc3)NC(=O)[C@H](C(C)C)NC2=O)c1 (stereo partly drawn) [Compound 3599] ({CH2CO}-[Dab]Y(Carboxymethyl)D[Phe(3-Me)]V[Bip]Y[Orn][dL][Dab][Cha][Thr(3ξ)]KCK[Aun]-OH; thioether N-14)	8.31
Cc1cccc(C[C@@H]2NC(=O)[C@H](CC(=O)O)NC(=O)[C@H](Cc3ccc(OCC(=O)O)cc3)NC(=O)[C@H](Cc3ccc(C(N)=O)cc3)NC(=O)CSC[C@@H](C(=O)N[C@@H](CCCCN)C(=O)NCCCCCCCCCCC(=O)O)NC(=O)[C@H](CCCCN)NC(=O)[C@H](C(C)O)NC(=O)[C@H](CC3CCCCC3)NC(=O)[C@H](CCN)NC(=O)[C@@H](CC(C)C)NC(=O)[C@H](CCCN)NC(=O)[C@H](Cc3ccc(O)cc3)NC(=O)[C@H](Cc3ccc(-c4ccccc4)cc3)NC(=O)[C@H](C(C)C)NC2=O)c1 (stereo partly drawn) [Compound 3600] ({CH2CO}-[Phe(4-CONH2)]Y(Carboxymethyl)D[Phe(3-Me)]V[Bip]Y[Orn][dL][Dab][Cha][Thr(3ξ)]KCK[Aun]-OH; thioether N-14)	7.40
CC(=O)Nc1ccc(C[C@@H]2NC(=O)[C@H](Cc3cccc(C)c3)NC(=O)[C@H](CC(=O)O)NC(=O)[C@H](Cc3ccc(OCC(=O)O)cc3)NC(=O)[C@H](CN)NC(=O)CSC[C@@H](C(=O)N[C@@H](CCN)C(=O)NCCCCCCCCCCC(=O)O)NC(=O)[C@H](C(C)O)NC(=O)[C@H](C(C)C)NC(=O)[C@H](CC3CCCCC3)NC(=O)[C@H](CCN)NC(=O)[C@@H](CC(C)C)NC(=O)[C@H](CCCN)NC(=O)[C@H](Cc3ccc(NC(C)=O)cc3)NC(=O)[C@H](Cc3ccc(-c4ccccc4)cc3)NC2=O)cc1 (stereo partly drawn) [Compound 3601] ({CH2CO}-[Dap]Y(Carboxymethyl)D[Phe(3-Me)][Phe(4-NH2)](Ac)[Bip][Phe(4-NH2)](Ac)[Orn][dL][Dab][Cha]V[Thr(3ξ)]C[Dab][Aun]-OH; thioether N-14)	7.42
CC(=O)NCCCC[C@@H]1NC(=O)[C@H](Cc2cccc(C)c2)NC(=O)[C@H](CC(=O)O)NC(=O)[C@H](Cc2ccc(OCC(=O)O)cc2)NC(=O)[C@H](Cc2ccc(NC(C)=O)cc2)NC(=O)CSC[C@@H](C(=O)N[C@@H](CCN)C(=O)NCCCCCCCCCCC(=O)O)NC(=O)[C@H](C(C)O)NC(=O)[C@H](C(C)C)NC(=O)[C@H](CC2CCCCC2)NC(=O)[C@H](CCN)NC(=O)[C@@H](CC(C)C)NC(=O)[C@H](CCCN)NC(=O)[C@H](CCCCNC(C)=O)NC(=O)[C@H](Cc2ccc(-c3ccccc3)cc2)NC1=O (stereo partly drawn) [Compound 3602] ({CH2CO}-[Phe(4-NH2)](Ac)Y(Carboxymethyl)D[Phe(3-Me)]K(Ac)[Bip]K(Ac)[Orn][dL][Dab][Cha]V[Thr(3ξ)]C[Dab][Aun]-OH; thioether N-14)	7.64
Cc1cccc(C[C@@H]2NC(=O)[C@H](CC(=O)O)NC(=O)[C@H](Cc3ccc(OCC(=O)O)cc3)NC(=O)[C@H](CCN)NC(=O)CSC[C@@H](C(=O)N[C@@H](CCN)C(=O)NCCCCCCCCCCC(=O)O)NC(=O)[C@H](CO)NC(=O)[C@H](C(C)(C)O)NC(=O)[C@H](CC3CCCCC3)NC(=O)[C@H](CCN)NC(=O)[C@@H](CC(C)C)NC(=O)[C@H](CCCN)NC(=O)[C@H](Cc3ccc(O)cc3)NC(=O)[C@H](Cc3ccc(-c4ccccc4)cc3)NC(=O)[C@H](Cc3ccc(C(N)=O)cc3)NC2=O)c1 [Compound 3603] ({CH2CO}-[Dab]Y(Carboxymethyl)D[Phe(3-Me)][Phe(4-CONH2)][Bip]Y[Orn][dL][Dab][Cha][Val(3-OH)]SC[Dab][Aun]-OH; thioether N-14)	8.04
